Measured values reported in BindingDB's records for doi:10.1016/j.bmcl.2004.12.045 (Nimbus Therapeutics, 2022).

Assays:
[1] = target: Cytochrome P450 2D6 (Homo sapiens, UniProt P10635); test: Inhibition of CYP2D6 (unknown origin)
[2] = target: Cytochrome P450 2C19 (Homo sapiens, UniProt P33261); test: Inhibition of CYP2C19 (unknown origin)
[3] = target: Cytochrome P450 2E1 (Homo sapiens, UniProt P05181); test: Inhibition of CYP2E1 (unknown origin)
[4] = target: Cytochrome P450 3A4 (Homo sapiens, UniProt P08684); test: Inhibition of CYP3A4 (unknown origin)
[5] = target: Cytochrome P450 2C9 (Homo sapiens, UniProt P11712); test: Inhibition of CYP2C9 (unknown origin)
[6] = target: T1, Cytochrome P450 1A2 (Homo sapiens, UniProt P05177); test: Inhibition of CYP1A2 (unknown origin)
T1 sequence (P05177 whole entry): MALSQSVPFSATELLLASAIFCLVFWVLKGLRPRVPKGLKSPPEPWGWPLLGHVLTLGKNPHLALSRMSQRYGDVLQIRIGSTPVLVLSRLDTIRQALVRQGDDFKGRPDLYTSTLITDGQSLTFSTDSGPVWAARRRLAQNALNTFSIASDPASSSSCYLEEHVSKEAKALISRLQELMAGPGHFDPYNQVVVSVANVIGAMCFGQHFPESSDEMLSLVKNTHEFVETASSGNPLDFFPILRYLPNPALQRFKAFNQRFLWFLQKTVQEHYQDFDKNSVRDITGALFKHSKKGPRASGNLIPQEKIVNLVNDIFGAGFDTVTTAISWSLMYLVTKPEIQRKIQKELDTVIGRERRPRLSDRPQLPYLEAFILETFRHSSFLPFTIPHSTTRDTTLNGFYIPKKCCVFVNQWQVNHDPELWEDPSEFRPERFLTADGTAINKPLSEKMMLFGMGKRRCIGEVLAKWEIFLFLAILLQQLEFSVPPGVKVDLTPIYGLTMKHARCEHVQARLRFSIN

[7] = target: T2, Cytochrome P450 2A6 (Homo sapiens, UniProt P11509); test: Inhibition of CYP2A6 (unknown origin)
T2 sequence (P11509 whole entry): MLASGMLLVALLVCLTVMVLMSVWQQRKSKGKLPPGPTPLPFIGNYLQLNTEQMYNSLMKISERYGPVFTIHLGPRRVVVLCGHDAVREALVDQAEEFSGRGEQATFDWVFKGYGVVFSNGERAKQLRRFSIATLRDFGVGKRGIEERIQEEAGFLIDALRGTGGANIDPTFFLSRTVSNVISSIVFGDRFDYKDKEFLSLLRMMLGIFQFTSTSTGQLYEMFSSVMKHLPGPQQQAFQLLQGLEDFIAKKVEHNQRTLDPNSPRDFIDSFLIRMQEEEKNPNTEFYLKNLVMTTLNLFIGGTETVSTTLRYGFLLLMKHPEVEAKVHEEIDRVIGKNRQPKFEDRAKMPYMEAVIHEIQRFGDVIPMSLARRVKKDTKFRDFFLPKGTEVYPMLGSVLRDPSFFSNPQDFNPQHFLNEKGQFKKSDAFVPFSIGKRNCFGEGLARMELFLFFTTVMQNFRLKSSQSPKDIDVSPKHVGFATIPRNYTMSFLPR

[8] = target: Cytochrome P450 3A5 (Homo sapiens, UniProt P20815); test: Inhibition of CYP3A5 (unknown origin)
[9] = target: T3, Cytochrome P450 2C8 (Homo sapiens, UniProt P10632); test: Inhibition of CYP2C8 (unknown origin)
T3 sequence (P10632 whole entry): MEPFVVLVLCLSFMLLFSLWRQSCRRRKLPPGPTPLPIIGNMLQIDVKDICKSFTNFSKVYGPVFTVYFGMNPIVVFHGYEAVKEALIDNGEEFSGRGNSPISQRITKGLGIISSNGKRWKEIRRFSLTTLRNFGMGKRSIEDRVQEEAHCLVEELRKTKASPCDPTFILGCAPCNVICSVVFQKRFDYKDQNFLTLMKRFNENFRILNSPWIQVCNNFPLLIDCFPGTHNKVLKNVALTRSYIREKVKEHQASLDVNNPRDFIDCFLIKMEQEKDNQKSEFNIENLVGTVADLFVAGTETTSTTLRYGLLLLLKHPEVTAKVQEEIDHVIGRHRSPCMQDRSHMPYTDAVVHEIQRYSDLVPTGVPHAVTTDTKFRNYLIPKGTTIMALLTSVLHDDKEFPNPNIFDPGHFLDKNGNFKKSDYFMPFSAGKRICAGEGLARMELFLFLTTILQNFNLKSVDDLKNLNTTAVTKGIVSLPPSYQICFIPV

[10] = target: Potassium voltage-gated channel subfamily H member 2 (Homo sapiens, UniProt Q12809); test: Inhibition of hERG measured by patchclamp assay
[11] = target: T4, Cytochrome P450 2B6 (Homo sapiens, UniProt P20813); test: Inhibition of CYP2B6 (unknown origin)
T4 sequence (P20813 whole entry): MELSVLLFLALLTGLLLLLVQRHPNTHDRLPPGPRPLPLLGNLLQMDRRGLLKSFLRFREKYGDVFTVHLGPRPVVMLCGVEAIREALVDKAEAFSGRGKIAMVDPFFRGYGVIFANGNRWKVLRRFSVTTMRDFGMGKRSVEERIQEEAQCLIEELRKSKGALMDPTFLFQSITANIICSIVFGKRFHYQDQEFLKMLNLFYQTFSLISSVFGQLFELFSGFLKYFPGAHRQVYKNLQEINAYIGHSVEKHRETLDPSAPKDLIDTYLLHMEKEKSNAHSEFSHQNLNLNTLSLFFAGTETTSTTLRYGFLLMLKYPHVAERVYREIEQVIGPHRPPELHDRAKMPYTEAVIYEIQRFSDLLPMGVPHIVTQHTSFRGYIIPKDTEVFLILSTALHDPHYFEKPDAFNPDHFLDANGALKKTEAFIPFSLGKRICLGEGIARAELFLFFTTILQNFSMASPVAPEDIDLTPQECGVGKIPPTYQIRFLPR

Chain of Cytochrome P450 2C19 (P33261 whole entry): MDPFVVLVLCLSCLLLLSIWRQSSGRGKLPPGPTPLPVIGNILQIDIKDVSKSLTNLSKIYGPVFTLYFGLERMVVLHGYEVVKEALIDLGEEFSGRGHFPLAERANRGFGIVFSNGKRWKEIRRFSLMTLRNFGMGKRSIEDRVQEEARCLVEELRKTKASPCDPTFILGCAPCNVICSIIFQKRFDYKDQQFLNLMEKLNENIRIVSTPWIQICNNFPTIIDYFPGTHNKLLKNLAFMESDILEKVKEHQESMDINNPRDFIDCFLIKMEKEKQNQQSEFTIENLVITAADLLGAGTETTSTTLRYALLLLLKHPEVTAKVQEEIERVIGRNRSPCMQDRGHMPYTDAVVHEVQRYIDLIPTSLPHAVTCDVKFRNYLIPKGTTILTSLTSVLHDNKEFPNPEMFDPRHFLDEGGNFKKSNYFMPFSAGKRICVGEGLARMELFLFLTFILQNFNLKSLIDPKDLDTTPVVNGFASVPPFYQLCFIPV
Chain of Cytochrome P450 2E1 (P05181 whole entry): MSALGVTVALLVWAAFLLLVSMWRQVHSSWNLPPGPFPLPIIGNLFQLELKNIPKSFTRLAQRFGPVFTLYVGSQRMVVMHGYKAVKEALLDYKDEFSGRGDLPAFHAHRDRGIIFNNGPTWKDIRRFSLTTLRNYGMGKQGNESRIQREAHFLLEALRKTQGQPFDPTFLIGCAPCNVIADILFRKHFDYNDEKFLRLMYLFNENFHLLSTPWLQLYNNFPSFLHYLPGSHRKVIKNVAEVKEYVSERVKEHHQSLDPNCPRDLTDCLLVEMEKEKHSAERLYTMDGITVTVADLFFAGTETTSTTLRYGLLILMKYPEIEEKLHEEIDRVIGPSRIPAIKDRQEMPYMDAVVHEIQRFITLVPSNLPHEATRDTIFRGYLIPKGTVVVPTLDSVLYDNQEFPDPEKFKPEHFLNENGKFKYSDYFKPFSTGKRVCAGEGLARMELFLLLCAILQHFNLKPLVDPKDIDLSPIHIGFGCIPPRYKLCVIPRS
Chain of Cytochrome P450 2C9 (P11712 whole entry): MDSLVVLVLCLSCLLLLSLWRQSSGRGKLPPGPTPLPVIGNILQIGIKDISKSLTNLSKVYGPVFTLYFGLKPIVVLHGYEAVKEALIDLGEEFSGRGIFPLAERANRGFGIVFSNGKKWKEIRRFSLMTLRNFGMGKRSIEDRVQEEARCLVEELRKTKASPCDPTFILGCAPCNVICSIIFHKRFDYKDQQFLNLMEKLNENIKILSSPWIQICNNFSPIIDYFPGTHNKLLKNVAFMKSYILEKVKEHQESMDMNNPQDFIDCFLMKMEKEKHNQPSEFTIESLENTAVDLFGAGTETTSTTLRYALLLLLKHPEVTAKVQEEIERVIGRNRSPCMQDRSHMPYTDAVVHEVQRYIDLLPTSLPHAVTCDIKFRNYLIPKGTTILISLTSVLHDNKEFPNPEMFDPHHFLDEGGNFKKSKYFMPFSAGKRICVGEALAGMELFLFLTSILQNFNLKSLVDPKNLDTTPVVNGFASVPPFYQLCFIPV
Chain of Cytochrome P450 3A5 (P20815 whole entry): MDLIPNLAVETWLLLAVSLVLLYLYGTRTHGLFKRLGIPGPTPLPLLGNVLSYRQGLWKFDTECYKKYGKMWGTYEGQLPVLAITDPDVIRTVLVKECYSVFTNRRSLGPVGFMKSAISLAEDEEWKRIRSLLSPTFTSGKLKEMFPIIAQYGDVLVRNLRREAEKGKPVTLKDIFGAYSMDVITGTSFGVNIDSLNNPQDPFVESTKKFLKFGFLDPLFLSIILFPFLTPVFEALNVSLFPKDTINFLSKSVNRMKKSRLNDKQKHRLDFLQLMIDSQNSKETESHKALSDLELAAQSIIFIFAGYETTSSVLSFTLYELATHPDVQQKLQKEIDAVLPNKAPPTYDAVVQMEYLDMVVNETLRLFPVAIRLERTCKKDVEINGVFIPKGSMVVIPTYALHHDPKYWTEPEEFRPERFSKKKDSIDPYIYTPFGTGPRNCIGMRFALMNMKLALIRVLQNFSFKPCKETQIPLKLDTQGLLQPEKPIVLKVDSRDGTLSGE
Chain of Potassium voltage-gated channel subfamily H member 2 (Q12809 whole entry): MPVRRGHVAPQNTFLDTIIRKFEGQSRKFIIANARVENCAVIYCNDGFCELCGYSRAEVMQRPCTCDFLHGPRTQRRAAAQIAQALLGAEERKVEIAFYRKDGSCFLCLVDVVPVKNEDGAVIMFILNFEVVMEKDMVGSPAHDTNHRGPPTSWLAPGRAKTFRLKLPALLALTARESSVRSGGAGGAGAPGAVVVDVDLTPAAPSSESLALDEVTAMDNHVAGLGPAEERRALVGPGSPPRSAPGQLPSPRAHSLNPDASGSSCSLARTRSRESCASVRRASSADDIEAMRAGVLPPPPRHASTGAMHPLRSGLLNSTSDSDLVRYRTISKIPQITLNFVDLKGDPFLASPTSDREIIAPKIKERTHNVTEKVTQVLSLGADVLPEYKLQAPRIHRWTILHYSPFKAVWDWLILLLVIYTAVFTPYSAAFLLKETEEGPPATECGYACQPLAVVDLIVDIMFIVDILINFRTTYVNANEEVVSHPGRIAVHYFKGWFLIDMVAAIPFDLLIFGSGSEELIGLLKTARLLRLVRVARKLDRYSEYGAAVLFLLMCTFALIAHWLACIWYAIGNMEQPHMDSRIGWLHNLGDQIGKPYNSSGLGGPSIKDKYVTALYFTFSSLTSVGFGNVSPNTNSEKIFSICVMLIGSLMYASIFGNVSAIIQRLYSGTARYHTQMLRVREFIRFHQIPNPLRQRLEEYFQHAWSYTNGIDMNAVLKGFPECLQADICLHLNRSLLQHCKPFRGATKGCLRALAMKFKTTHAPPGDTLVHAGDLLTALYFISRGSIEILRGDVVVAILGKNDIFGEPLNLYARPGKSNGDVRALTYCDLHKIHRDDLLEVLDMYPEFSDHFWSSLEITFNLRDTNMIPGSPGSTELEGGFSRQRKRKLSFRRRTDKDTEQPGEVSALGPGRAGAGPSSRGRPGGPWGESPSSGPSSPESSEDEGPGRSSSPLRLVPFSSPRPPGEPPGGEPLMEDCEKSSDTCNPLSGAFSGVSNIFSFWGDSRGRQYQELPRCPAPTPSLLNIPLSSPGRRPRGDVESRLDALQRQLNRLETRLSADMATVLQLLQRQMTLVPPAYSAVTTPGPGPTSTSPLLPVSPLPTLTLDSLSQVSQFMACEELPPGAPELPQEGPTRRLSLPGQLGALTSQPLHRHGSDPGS
Chain of Cytochrome P450 2D6 (P10635 whole entry): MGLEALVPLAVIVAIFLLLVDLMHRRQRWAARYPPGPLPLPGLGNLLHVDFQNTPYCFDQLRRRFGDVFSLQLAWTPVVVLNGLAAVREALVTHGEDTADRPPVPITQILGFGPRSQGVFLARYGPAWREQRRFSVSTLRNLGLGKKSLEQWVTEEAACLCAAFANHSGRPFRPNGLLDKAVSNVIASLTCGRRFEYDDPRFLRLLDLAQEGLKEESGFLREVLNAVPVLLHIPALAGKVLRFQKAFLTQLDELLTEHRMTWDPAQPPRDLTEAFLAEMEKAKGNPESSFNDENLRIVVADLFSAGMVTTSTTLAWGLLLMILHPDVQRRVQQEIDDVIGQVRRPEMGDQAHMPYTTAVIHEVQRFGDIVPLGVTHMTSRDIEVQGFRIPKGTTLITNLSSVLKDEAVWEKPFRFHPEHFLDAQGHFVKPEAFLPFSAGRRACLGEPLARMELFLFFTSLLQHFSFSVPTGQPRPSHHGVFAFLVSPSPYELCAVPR
Chain of Cytochrome P450 3A4 (P08684 whole entry): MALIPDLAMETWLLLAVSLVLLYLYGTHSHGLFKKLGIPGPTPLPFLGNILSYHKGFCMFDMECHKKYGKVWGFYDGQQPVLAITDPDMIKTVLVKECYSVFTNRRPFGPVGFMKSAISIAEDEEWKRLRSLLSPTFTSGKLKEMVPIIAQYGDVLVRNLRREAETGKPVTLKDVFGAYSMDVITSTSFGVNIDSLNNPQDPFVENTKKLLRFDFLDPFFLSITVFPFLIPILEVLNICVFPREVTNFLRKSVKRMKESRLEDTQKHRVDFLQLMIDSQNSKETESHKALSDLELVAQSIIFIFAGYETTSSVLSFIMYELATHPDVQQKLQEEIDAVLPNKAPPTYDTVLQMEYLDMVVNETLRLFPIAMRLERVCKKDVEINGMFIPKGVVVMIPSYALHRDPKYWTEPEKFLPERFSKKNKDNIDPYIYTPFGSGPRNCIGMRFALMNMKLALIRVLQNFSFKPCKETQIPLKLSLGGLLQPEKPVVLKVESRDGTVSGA

- IC50 [1]: > 30 µM
- IC50 [2]: > 30 µM
- IC50 [3]: > 30 µM
- IC50 [4]: > 30 µM
- IC50 [5]: > 30 µM
- IC50 [6]: > 30 µM
- IC50 [7]: > 30 µM
- IC50 [8]: > 30 µM
- IC50 [9]: > 30 µM
- IC50 [11]: > 30 µM
Structure (SMILES): O=C1NCc2nc(-c3c(F)cccc3F)cc(Nc3ccc(C(=O)N4CCCC4)cc3)c21 [US10336752, Compound 2]
- IC50 [10]: > 30 µM
